# Data from patent US10501421B1, “Substituted benzimidazoles as modulators of Ras signaling” (VANDERBILT UNIVERSITY, priority 2017, dated 2019).
# Counter-ions that a name gives are not always drawn.
# Columns and labels:
# Son of Sevenless (SOS) = biological target: T1, Son of Sevenless (SOS) (Homo sapiens, UniProt Q07889); test: Binding to SOS, fluorescence polarization anisotropy (FPA) probe displacement; details: displacement of FITC-conjugated probe (Example 285), affinity calculated from IC50
# T1 sequence (Q07889 564-1049 limits assumed): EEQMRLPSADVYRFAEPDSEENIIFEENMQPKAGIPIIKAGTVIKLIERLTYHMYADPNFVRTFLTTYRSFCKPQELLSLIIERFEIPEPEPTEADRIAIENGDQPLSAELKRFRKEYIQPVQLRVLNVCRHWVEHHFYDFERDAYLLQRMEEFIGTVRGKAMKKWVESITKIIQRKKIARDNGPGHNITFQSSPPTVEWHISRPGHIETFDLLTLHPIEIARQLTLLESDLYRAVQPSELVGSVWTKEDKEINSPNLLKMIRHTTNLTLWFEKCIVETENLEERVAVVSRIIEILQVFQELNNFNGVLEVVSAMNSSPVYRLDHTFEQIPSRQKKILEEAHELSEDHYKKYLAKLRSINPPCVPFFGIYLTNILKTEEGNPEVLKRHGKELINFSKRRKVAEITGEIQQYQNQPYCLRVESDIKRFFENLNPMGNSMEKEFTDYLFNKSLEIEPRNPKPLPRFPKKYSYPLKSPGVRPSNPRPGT
# How it was run: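 Test compounds were titrated against SOS pre-bound to a fluorescein-labelled probe, with anisotropy plotted versus compound concentration. Binding affinities were derived from IC50 values obtained by four-parameter dose-response fitting.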
# [1] = biological target: Ras GEF SOS (Son of Sevenless) (Homo sapiens, UniProt Q07889); test: SOS-mediated nucleotide exchange on Ras (BODIPY-GDP fluorescence); type: biochemical; details: SOS-mediated exchange of BODIPY-GDP for GTP on Ras
# How it was run: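 Exchange rates were taken from single-exponential fits of the fluorescence time course as BODIPY-GDP on Ras was replaced by GTP. Compound went in first, then GTP and SOS. Mean rates plotted against concentration gave EC50 by four-parameter dose-response fitting.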
# Chain of Ras GEF SOS (Son of Sevenless) (P01112 1-166 partner limits assumed, one chain of several): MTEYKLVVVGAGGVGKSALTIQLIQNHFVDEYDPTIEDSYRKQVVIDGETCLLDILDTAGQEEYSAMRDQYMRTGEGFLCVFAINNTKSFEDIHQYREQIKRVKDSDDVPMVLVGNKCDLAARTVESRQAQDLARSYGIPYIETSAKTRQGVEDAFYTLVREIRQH
Ki (Son of Sevenless (SOS)),EC50 [1],Structure (SMILES)
0.5 to 1 µM,1 to 5 µM,"COCCN1CCN(c2cc(C)cc3c2nc(N2CCNCC2)n3Cc2cc(C)c(F)c(C)c2)CC1 [Example 195, 1-(4-fluoro-3,5-dimethylbenzyl)-4-(4-(2-methoxyethyl)piperazin-1-yl)-6-methyl-2-(piperazin-1-yl)-1H-benzo[d]imidazole trifluoroacetate]"
0.5 to 1 µM,1 to 5 µM,"Cc1cc(NCCCCN(C)C)c2nc(N3CCNCC3)n(Cc3cc(C)c(F)c(C)c3)c2c1 [Example 196, N^1-(1-(4-fluoro-3,5-dimethylbenzyl)-6-methyl-2-(piperazin-1-yl)-1H-benzo[d]imidazol-4-yl)-N^4,N^4-dimethylbutane-1,4-diamine trifluoroacetate]"
0.5 to 1 µM,1 to 5 µM,"Cc1cc(NCCCN(C)C)c2nc(N3CCNCC3)n(Cc3cc(C)c(F)c(C)c3)c2c1 [Example 197, N^1-(1-(4-fluoro-3,5-dimethylbenzyl)-6-methyl-2-(piperazin-1-yl)-1H-benzo[d]imidazol-4-yl)-N^3,N^3-dimethylpropane-1,3-diamine trifluoroacetate]"
0.5 to 1 µM,1 to 5 µM,"Cc1cc(NC[C@H]2CCNC2)c2nc(N3CCNCC3)n(Cc3cc(C)c(F)c(C)c3)c2c1 [Example 198, (S)-1-(4-fluoro-3,5-dimethylbenzyl)-6-methyl-2-(piperazin-1-yl)-N-(pyrrolidin-3-ylmethyl)-1H-benzo[d]imidazol-4-amine trifluoroacetate]"
0.5 to 1 µM,< 1 µM,"Cc1cc(OCCN2CCN(C)CC2)c2nc(N3CCNCC3)n(Cc3cc(C)c(F)c(C)c3)c2c1 [Example 201, 1-(4-fluoro-3,5-dimethylbenzyl)-6-methyl-4-(2-(4-methylpiperazin-1-yl)ethoxy)-2-(piperazin-1-yl)-1H-benzo[d]imidazole]"
0.5 to 1 µM,< 1 µM,"Cc1cc(OCCN(C)C)c2nc(N3CCNCC3)n(Cc3cc(C)c(F)c(C)c3)c2c1 [Example 203, 2-((1-(4-fluoro-3,5-dimethylbenzyl)-6-methyl-2-(piperazin-1-yl)-1H-benzo[d]imidazol-4-yl)oxy)-N,N-dimethylethan-1-amine]"
1 to 5 µM,< 1 µM,"Cc1cc(OC2CCOC2)c2nc(N3CCNCC3)n(Cc3cc(C)c(F)c(C)c3)c2c1 (stereo not shown) [Example 204, 1-(4-fluoro-3,5-dimethylbenzyl)-6-methyl-2-(piperazin-1-yl)-4-((tetrahydrofuran-3-yl)oxy)-1H-benzo[d]imidazole]"
1 to 5 µM,< 1 µM,"Cc1cc(Cn2c(N3CCNCC3)nc3c(OC4CCN(C)CC4)cccc32)ccc1F [Example 205, 1-(4-fluoro-3-methylbenzyl)-4-((1-methylpiperidin-4-yl)oxy)-2-(piperazin-1-yl)-1H-benzo[d]imidazole]"
> 5 µM,< 1 µM,"Cc1cc(Cn2c(N3CCNCC3)nc3c(OC4CCNC4)cccc32)ccc1F (stereo not shown) [Example 206, 1-(4-fluoro-3-methylbenzyl)-2-(piperazin-1-yl)-4-(pyrrolidin-3-yloxy)-1H-benzo[d]imidazole]"
1 to 5 µM,< 1 µM,"Cc1cc(Cn2c(NCCN)nc3c(OCCN4CCCC4)cccc32)ccc1F [Example 207, N^1-(1-(4-fluoro-3-methylbenzyl)-4-(2-(pyrrolidin-1-yl)ethoxy)-1H-benzo[d]imidazol-2-yl)ethane-1,2-diamine]"
> 5 µM,< 1 µM,"Cc1cc(Cn2c(N3CCNCC3)nc3c(OCCN4CCCC4)cccc32)ccc1F [Example 208, 1-(4-fluoro-3-methylbenzyl)-2-(piperazin-1-yl)-4-(2-(pyrrolidin-1-yl)ethoxy)-1H-benzo[d]imidazole]"
> 5 µM,< 1 µM,"Cc1cc(Cn2c(N3CCNCC3)nc3c(OCCN4CCN(C)CC4)cccc32)ccc1F [Example 209, 1-(4-fluoro-3-methylbenzyl)-4-(2-(4-methylpiperazin-1-yl)ethoxy)-2-(piperazin-1-yl)-1H-benzo[d]imidazole]"
> 5 µM,< 1 µM,"Cc1cc(Cn2c(N3CCNCC3)nc3c(OCCN(C)C)cccc32)ccc1F [Example 210, 2-((1-(4-fluoro-3-methylbenzyl)-2-(piperazin-1-yl)-1H-benzo[d]imidazol-4-yl)oxy)-N,N-dimethylethan-1-amine]"
> 5 µM,1 to 5 µM,"Cc1cc2c(cc1C)N(Cc1ccc(F)c(Cl)c1)C1=NCCCN12 [Example 213, 10-(3-chloro-4-fluorobenzyl)-7,8-dimethyl-2,3,4,10-tetrahydrobenzo[4,5]imidazo[1,2-a]pyrimidine]"
> 5 µM,30 to 100 µM,"Fc1ccc(CN2C3=NCCCN3c3cc(Cl)ccc32)cc1Cl [Example 214, 7-chloro-10-(3-chloro-4-fluorobenzyl)-2,3,4,10-tetrahydrobenzo[4,5]imidazo[1,2-a]pyrimidine]"
0.5 to 1 µM,< 1 µM,"Cc1cc2c(nc(N3CC(CN)C3)n2Cc2ccc(F)c(C)c2)c(-c2ccccc2F)n1 [Example 216, (1-(1-(4-fluoro-3-methylbenzyl)-4-(2-fluorophenyl)-6-methyl-1H-imidazo[4,5-c]pyridin-2-yl)azetidin-3-yl)methanamine]"
> 5 µM,1 to 5 µM,"Cc1cc2c(nc(N3CCNCC3)n2Cc2ccc(F)c(C)c2)c(-c2ccccc2F)n1 [Example 217, 1-(4-fluoro-3-methylbenzyl)-4-(2-fluorophenyl)-6-methyl-2-(piperazin-1-yl)-1H-imidazo[4,5-c]pyridine]"
> 5 µM,5 to 30 µM,"Cc1cc2c(nc(N3CCNCC3)n2Cc2ccc(F)c(C)c2)c(Cl)n1 [Example 218, 4-chloro-1-(4-fluoro-3-methylbenzyl)-6-methyl-2-(piperazin-1-yl)-1H-imidazo[4,5-c]pyridine]"
> 5 µM,5 to 30 µM,"Cc1cc2c(nc(N3CCNCC3)n2Cc2ccc(F)c(C)c2)c(-c2ccccc2C(C)C)n1 [Example 219, 1-(4-fluoro-3-methylbenzyl)-4-(2-isopropylphenyl)-6-methyl-2-(piperazin-1-yl)-1H-imidazo[4,5-c]pyridine]"
> 5 µM,5 to 30 µM,"Cc1cc2c(nc(NCCN)n2Cc2ccc(F)c(C)c2)c(-c2ccccc2C)n1 [Example 224, N^1-(1-(4-fluoro-3-methylbenzyl)-6-methyl-4-(o-tolyl)-1H-imidazo[4,5-c]pyridin-2-yl)ethane-1,2-diamine]"
> 5 µM,5 to 30 µM,"Cc1cc2c(nc(N3CCNCC3)n2Cc2ccc(F)c(C)c2)c(-c2ccccc2C)n1 [Example 225, 1-(4-fluoro-3-methylbenzyl)-6-methyl-2-(piperazin-1-yl)-4-(o-tolyl)-1H-imidazo[4,5-c]pyridine]"
> 5 µM,5 to 30 µM,"Cc1cc2c(nc(N3CCNCC3)n2Cc2ccc(F)c(C)c2)c(-c2ccncc2)n1 [Example 226, 1-(4-fluoro-3-methylbenzyl)-6-methyl-2-(piperazin-1-yl)-4-(pyridin-4-yl)-1H-imidazo[4,5-c]pyridine]"
> 5 µM,1 to 5 µM,"Cc1cc2c(nc(N3CCNCC3)n2Cc2ccc(F)c(C)c2)c(-c2cccnc2C)n1 [Example 227, 1-(4-fluoro-3-methylbenzyl)-6-methyl-4-(2-methylpyridin-3-yl)-2-(piperazin-1-yl)-1H-imidazo[4,5-c]pyridine]"
